Measured values published in patent US20230293535A1, “ERBB/BTK INHIBITORS” (Dizal (Jiangsu) Pharmaceutical Co., Ltd., priority 2018, published 2023).

How the values were obtained:
[1] = system: Ri-1 cells; test: BTK (wt) cell proliferation, Ri-1 (CellTiter-Glo, 72 h); format: cell-based; conditions: Ri-1, 72 h, Ri-1 cells, 72 h, CellTiter-Glo; read-out: BTK WT Ri-1 GI50;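 note: viable cells quantified as cellular ATP luminescence, proliferation normalized to a time-zero plate and the DMSO control, compounds tested across a dilution series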
Method: OCI-LY-10 at 3,750 cells/well, TMD-8 and Ri-1 at 2,000 cells/well, and DB at 1,250 cells/well, respectively, were sorted into 384-well plates in RPMI1640 medium with 10% FBS. After overnight incubation, all cells were incubated with compound at a series of concentrations. Meanwhile, a duplicated plate of each cell line was prepared for measuring G0 value. The dosed plates were further incubated for 72 hours and the number of viable cells was measured by CellTiter-Glo® Luminescent Cell Viability Assay (Promega), a luminescent method for determining the number of viable cells through measurement of cellular ATP concentration using Envision plate reader (PerkinElmer). The percentage of proliferation was calculated as: % Proliferation = 100 × (G3 value of sample well - G0 value)/(G3 value of DMSO control - G0 value).

[2] = target: T1, human Her2 exon 20 insertion mutation YVMA (Homo sapiens, UniProt P04626, INS775YVMA); test: Her2 Exon 20 YVMA insertion cellular phosphorylation inhibition (MSD p-Her2 Y1248/total Her2); format: cell-based; conditions: Her2 YVMAins cells, 4 h compound;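 note: lentivirally transduced NIH-3T3 cells in 1% FBS medium, electrochemiluminescent MSD read-out, graded compound concentrations at 37 °C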
T1 construct: expressed in transfected cells; host or cells: NIH-3T3, lentiviral transduction, puromycin selection
T1 sequence (P04626 with tags, fused parts or gaps INS775YVMA): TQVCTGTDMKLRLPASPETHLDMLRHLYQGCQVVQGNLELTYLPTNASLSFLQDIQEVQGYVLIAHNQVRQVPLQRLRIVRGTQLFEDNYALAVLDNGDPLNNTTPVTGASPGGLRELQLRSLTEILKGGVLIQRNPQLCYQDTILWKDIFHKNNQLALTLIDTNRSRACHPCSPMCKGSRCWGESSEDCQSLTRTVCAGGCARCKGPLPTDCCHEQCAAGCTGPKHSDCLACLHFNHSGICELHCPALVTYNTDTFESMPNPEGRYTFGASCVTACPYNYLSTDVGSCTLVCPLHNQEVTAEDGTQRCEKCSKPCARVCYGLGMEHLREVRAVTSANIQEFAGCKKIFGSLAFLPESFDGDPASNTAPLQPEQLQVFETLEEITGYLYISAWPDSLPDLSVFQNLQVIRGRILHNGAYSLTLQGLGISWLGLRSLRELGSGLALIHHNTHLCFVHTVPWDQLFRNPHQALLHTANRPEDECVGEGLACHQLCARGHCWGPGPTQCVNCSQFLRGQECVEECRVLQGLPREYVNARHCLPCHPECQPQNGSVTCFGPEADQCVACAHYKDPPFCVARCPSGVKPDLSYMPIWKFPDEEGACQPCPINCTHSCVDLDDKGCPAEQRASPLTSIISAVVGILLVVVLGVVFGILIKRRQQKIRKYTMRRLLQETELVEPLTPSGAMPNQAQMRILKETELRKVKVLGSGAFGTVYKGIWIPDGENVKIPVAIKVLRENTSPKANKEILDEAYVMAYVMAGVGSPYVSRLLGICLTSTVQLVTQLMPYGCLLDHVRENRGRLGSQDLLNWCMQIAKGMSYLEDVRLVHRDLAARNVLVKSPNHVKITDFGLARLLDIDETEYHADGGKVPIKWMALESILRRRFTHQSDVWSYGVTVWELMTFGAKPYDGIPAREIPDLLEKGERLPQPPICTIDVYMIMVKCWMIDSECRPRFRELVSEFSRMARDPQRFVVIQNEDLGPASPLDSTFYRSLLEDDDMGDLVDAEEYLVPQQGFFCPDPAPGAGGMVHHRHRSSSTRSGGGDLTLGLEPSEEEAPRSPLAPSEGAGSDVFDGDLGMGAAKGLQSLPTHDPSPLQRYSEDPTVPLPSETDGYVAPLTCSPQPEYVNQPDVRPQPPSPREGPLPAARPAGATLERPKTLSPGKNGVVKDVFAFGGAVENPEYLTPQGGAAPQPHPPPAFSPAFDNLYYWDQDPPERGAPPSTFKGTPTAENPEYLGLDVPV
Method: The resulting cell line expressed phosphorylated Her2 protein and its proliferation depended on the mutation gene, which could be used for in vitro PD and anti-proliferation assays.
(§1) One day before the test, WT or mutant cells were seeded in 96 well plates at appropriate concentrations with corresponding growth media supplemented with 1% FBS, and incubated overnight. The next day, tested compounds at a series of concentrations were added into each individual well of the plates, and the plates were incubated for 4 h at 37° C. with 5% CO2.
(§2) The EGFR (Y1068) phosphorylation level (activity) of cells in each well were then measured with MSD kit named “MULTI-SPOT®96 4-Spot HB Prototype EGFR Triplex [sequence]: pEGFR(Tyr1068),pEGFR(Tyr1173), Total EGFR” according to the manufacturer’s instruction (MESO SCALE DISCOVERY, Cat# N45ZB-1). The assay is an electrochemiluminescent method for determining both phosphorylated and total EGFR of cells with an MSD SECTOR® Imager and the ratio of p-EGFR/total EGFR can be generated by the machine. The Her2 (Y1248) phosphorylation level (activity) of cells in each well were measured with MSD Kit named “Phospho-ErbB2 (Tyr1248) Assay Whole Cell Lysate Kit” according to the manufacturer’s instruction (MESO SCALE DISCOVERY, Cat# K151CLD-3). The assay is an electrochemiluminescent method (MESO SCALE DISCOVERY) for determining both phosphorylated and total Her2 of cells with an MSD SECTOR® Imager and then the ratio of p-Her2/total Her2 can be generated by the machine.

[3] = system: TMD-8 cells; test: BTK (wt) cell proliferation, TMD-8 (CellTiter-Glo, 72 h); format: cell-based; conditions: Homo sapiens, TMD8, 72 h, TMD-8 cells, 72 h, CellTiter-Glo; read-out: BTK WT TMD-8 GI50;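 note: viable cells quantified by ATP-based luminescence, proliferation expressed as percent of DMSO control after subtracting a time-zero baseline plate read at dosing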
[4] = target: T2, BTK (Homo sapiens, UniProt Q06187); test: BTK target site occupancy ELISA (Ramos); format: cell-based; set-up: endogenous in cells; host or cells: Ramos; conditions: BTK receptor occupancy, read-out: Occupancy (Romas) IC50
[5] = target: T3, WT EGFR (Homo sapiens, UniProt P00533); test: WT EGFR cellular phosphorylation inhibition in A-431 (hEGF stimulated, MSD); format: cell-based; conditions: A431 cells, 4 h compound, then 100 ng/ml hEGF 10 min;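 note: electrochemiluminescence read-out of EGFR Tyr1068 phosphorylation expressed as ratio to total EGFR, cells kept in medium with 1% FBS, compounds tested as a concentration series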
T3 construct: host or cells: A-431

[6] = target: T2, BTK; test: BTK target site occupancy ELISA (PBMC); format: cell-based; conditions: BTK receptor occupancy
[7] = system: NCI-H1975 EGFR L858R/T790M cells; test: Cell proliferation, NCI-H1975 EGFR L858R/T790M (CellTiter-Glo, 72 h); format: cell-based; conditions: Homo sapiens, NCI-H1975, 72 h, NCI-H1975, 72 h proliferation; read-out: EGFR L858R and T790M mutation GI50;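 note: viable cells quantified by luciferase-based ATP luminescence, proliferation expressed relative to DMSO-treated wells (100%) after subtracting a parallel plate read at the time of dosing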
[8] = system: OCI-LY-10 cells; test: BTK (wt) cell proliferation, OCI-LY-10 (CellTiter-Glo, 72 h); format: cell-based; conditions: Homo sapiens, OCI-Ly10, 72 h, OCI-LY-10 cells, 72 h, CellTiter-Glo; read-out: BTK WT OCI-LY-10 GI50;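 note: viable cells quantified via cellular ATP luminescence, proliferation given as percent of DMSO control after subtracting a duplicate plate read at time of dosing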
[9] = target: T4, human EGFR exon 20 H773_V774insNPH (Homo sapiens, UniProt P00533, INS773NPH); test: EGFR Exon20 NPH insertion cellular phosphorylation inhibition (MSD pEGFR Y1068/total EGFR); format: cell-based; conditions: Ba/F3 EGFR NPH ins cells, 4 h compound, p-EGFR(Y1068)/total EGFR;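 note: IL3-independent Ba/F3 cells with constitutively phosphorylated EGFR, compound exposure at 37 °C under 5% CO2, electrochemiluminescent MSD measurement of the p-EGFR to total EGFR ratio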
T4 construct: host or cells: Ba/F3
T4 sequence (P00533 with tags, fused parts or gaps INS773NPH): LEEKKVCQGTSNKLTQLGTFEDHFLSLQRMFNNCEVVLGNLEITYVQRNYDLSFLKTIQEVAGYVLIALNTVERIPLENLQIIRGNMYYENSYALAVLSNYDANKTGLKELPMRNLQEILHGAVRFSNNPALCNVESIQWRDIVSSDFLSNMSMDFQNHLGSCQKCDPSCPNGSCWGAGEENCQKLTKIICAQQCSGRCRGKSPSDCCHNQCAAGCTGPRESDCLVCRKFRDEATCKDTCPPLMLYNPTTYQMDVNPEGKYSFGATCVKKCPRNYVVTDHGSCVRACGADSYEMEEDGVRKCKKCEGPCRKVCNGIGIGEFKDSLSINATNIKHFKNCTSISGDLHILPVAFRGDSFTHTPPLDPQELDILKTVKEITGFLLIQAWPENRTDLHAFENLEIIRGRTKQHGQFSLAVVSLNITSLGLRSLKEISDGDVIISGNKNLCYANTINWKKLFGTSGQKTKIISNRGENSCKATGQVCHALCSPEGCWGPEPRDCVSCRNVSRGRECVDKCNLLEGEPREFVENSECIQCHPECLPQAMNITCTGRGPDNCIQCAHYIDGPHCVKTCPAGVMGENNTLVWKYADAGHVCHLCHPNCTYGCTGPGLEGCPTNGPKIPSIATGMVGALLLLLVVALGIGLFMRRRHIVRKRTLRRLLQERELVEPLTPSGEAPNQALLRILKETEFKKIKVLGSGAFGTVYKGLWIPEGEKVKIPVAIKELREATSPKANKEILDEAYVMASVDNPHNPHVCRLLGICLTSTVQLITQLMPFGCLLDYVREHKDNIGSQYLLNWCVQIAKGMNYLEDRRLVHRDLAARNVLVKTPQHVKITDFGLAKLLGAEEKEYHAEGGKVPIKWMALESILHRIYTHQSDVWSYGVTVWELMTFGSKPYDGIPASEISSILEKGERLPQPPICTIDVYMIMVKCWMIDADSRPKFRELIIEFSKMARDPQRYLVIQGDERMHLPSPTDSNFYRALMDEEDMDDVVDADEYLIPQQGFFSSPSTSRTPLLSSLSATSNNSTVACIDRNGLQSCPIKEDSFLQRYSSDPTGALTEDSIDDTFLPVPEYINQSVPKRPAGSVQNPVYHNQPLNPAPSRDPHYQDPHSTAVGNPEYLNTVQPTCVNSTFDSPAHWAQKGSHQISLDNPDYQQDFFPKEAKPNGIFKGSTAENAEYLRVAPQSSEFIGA
Method: as §1
The EGFR (Y1068) phosphorylation level (activity) of cells in each well were then measured with MSD kit named “MULTI-SPOT®96 4-Spot HB Prototype EGFR Triplex [sequence]: pEGFR(Tyr1068),pEGFR(Tyr1173), Total EGFR” according to the manufacturer’s instruction (MESO SCALE DISCOVERY, Cat# N45ZB-1). The assay is an electrochemiluminescent method for determining both phosphorylated and total EGFR of cells with an MSD SECTOR® Imager and the ratio of p-EGFR/total EGFR can be generated by the machine.

[10] = target: T5, Phospho-BTK (Tyr223) (Homo sapiens, UniProt Q06187); test: p-BTK assay in Ramos cells (HTRF Phospho-BTK Tyr223); format: cell-based; conditions: pervanadate stimulated, read-out: p-BTK (Romas) IC50
T5 construct: endogenous in cells; host or cells: Ramos
Method: The assay plates were then incubated for 30 minutes at 37° C., 5% CO2. 300 uM Per vanadate (3X) was added to each well and the assay plates were again incubated for 60 minutes at 37° C., 5% CO2. Phospho-BTK (Tyr223) is detected using the HTRF® reagents (Cisbio) according to the manufacturer’s one-plate assay protocol.

[11] = system: Ba/F3 EGFR ASV ins cells; test: Cell proliferation, Ba/F3 EGFR ASV ins (CellTiter-Glo, 72 h); format: cell-based; conditions: Ba/F3 EGFR, 72 h, Ba/F3 EGFR ASV ins, 72 h proliferation; read-out: EGFR Exon20 ASV insertion GI50;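 note: IL3-independent Ba/F3 cells transduced with EGFR V769_D770insASV, cellular ATP luminescence after compound exposure, growth relative to DMSO control with the day-0 baseline reading subtracted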
[12] = target: T6, human EGFR exon 20 V769_D770insASV (Homo sapiens, UniProt P00533, INS769ASV); test: EGFR Exon20 ASV insertion cellular phosphorylation inhibition (MSD pEGFR Y1068/total EGFR); format: cell-based; conditions: Ba/F3 EGFR ASV ins cells, 4 h compound, p-EGFR(Y1068)/total EGFR;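 note: electrochemiluminescent readout on an MSD SECTOR Imager, IL3-independent transduced cells in medium with 1% FBS, compound concentration series at 37 °C and 5% CO2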
T6 construct: expressed in transfected cells; host or cells: Ba/F3 (DSMZ ACC-300), lentiviral transduction, puromycin selection, IL3 depletion
T6 sequence (P00533 with tags, fused parts or gaps INS769ASV): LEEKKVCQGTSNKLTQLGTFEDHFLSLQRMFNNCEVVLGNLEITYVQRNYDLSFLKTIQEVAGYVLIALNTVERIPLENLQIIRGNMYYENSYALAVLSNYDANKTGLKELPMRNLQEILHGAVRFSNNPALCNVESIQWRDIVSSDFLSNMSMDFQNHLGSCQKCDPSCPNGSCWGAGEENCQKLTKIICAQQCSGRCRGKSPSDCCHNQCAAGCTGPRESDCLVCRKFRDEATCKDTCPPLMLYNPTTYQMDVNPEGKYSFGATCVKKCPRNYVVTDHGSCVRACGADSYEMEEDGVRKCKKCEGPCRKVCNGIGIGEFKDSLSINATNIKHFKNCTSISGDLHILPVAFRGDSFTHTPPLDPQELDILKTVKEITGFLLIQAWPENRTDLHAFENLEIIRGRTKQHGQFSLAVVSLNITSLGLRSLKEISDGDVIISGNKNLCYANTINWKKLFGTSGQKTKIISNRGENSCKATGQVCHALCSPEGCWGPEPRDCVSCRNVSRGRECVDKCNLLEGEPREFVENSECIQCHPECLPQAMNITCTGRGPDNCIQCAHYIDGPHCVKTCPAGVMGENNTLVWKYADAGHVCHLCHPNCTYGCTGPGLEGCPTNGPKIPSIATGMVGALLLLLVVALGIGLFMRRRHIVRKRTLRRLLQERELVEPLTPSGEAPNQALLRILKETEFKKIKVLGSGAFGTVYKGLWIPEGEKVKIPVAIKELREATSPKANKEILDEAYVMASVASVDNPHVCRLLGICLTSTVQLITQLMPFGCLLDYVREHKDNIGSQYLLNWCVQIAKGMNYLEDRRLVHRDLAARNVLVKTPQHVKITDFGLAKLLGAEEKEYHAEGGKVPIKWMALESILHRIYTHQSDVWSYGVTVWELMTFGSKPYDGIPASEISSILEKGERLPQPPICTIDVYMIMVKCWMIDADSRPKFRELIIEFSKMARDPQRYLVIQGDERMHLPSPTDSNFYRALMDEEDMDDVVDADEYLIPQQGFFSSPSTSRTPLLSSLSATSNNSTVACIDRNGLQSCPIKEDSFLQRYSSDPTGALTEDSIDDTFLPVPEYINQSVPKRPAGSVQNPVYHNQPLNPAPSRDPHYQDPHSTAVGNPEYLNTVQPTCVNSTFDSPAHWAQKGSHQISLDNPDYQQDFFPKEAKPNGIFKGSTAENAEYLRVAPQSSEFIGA
Method: To generate the EGFR exon 20 V769_D770insASV transduced Ba/F3 cell line, the parental Ba/F3 cells were infected with the recombinant EGFR V769_D770insASV lentivirus and then followed by 1 µg/ml of puromycin selection and IL3 depletion. The resulting cell line expresses constitutively phosphorylated EGFR protein and proliferates in the absence of IL3, which could be used for in vitro PD and anti-proliferation assays.
as §1, §2

[13] = system: Ba/F3 EGFR NPH ins cells; test: Cell proliferation, Ba/F3 EGFR NPH ins (CellTiter-Glo, 72 h); format: cell-based; conditions: Ba/F3 EGFR, 72 h, Ba/F3 EGFR NPH ins, 72 h proliferation; read-out: EGFR Exon20 NPH insertion GI50;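 note: IL3-independent cells carrying constitutively phosphorylated EGFR, compound dilution series, viable cells quantified by ATP luminescence, growth relative to DMSO wells after subtracting pre-dosing (day 0) baseline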
[14] = system: Her2 exon 20 insertion YVMA transduced NIH-3T3 cell line; test: Cell proliferation, Her2 YVMAins NIH-3T3 (CellTiter-Glo, 72 h); format: cell-based; conditions: Mus musculus, NIH3T3, 72 h, Her2 YVMAins cells, 72 h proliferation; read-out: Her2 Exon 20 YVMA insertion GI50;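 note: viable cells quantified by ATP luminescence, growth over a day-zero baseline plate expressed as percent of DMSO control growth, compound dilution series in 10% FBS medium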
[15] = system: DB cells; test: BTK (wt) cell proliferation, DB (CellTiter-Glo, 72 h); format: cell-based; conditions: Homo sapiens, DB, DB cells, CellTiter-Glo, read-out: Non-BCR activated DB GI50;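 note: DB cells in 384-well plates given a dilution series of compound, viable cells read by ATP luminescence, growth expressed versus DMSO control after subtracting a time-zero plate reading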
[16] = system: WT EGFR cell line A-431; test: Cell proliferation, WT EGFR A431 (CellTiter-Glo, 72 h); format: cell-based; conditions: Homo sapiens, A-431, 72 h, A431, 72 h proliferation; read-out: EGFR WT A431 GI50;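 note: proliferation from a luminescent ATP viability signal, expressed as 100 × (treated minus time-zero plate) over (DMSO control minus time-zero plate), cells grown with 10% FBS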
[17] = target: T7, EGFR L858R&T790M (Homo sapiens, UniProt P00533, L858R/T790M); test: EGFR L858R and T790M cellular phosphorylation inhibition in NCI-H1975 (MSD); format: cell-based; conditions: NCI-H1975 cells, 4 h compound, p-EGFR(Y1068)/total EGFR; read-out: EGFR L858R and T790M mutation IC50;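 note: phosphorylated and total EGFR detected by electrochemiluminescence, cells exposed to compound in medium containing 1% FBS at 37 °C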
T7 construct: host or cells: NCI-H1975
T7 sequence (P00533 25-1210 T790M/L858R): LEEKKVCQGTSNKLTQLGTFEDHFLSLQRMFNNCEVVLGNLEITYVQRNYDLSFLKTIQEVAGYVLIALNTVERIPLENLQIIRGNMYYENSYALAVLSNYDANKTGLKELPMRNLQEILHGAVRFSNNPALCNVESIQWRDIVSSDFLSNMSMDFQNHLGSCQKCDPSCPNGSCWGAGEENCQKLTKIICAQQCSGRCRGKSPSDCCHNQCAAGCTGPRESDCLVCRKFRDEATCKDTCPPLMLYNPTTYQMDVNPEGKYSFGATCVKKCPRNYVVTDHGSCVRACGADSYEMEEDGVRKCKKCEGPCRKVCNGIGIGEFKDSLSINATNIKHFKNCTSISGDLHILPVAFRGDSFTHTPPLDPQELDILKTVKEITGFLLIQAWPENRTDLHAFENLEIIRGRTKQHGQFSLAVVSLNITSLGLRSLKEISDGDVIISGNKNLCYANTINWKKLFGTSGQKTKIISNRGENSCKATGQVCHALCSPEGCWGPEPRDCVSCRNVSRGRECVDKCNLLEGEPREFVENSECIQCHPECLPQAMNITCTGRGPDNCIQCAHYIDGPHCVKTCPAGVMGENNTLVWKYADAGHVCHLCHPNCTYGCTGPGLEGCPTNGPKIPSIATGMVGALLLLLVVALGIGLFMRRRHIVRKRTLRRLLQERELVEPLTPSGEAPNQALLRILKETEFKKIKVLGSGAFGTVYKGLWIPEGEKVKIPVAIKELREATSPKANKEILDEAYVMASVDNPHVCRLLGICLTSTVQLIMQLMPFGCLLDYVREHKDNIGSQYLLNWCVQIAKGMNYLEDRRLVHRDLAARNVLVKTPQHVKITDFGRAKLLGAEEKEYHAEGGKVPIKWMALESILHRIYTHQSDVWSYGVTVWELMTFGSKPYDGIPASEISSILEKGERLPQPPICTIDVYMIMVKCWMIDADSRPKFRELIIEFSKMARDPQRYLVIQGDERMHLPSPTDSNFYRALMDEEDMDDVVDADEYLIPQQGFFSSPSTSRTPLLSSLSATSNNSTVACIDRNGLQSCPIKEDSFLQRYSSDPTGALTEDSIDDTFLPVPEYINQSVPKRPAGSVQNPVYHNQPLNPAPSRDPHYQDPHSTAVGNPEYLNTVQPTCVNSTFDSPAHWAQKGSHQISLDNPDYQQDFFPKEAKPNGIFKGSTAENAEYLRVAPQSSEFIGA

[18] = In vitro rat hepatocytes clearance assay; conditions: male, rat, cryopreserved rat hepatocytes (suspension), rat hepatocytes Clint (µL/min/10^6cells), 1 µM-range incubation up to 100 min
Method: (§3) The protocol for rat/human hepatocytes metabolic stability assay is employed to determine the clearance of the compounds of the present disclosure in vitro.
(§4) Rat hepatocytes in male gender and human hepatocytes in mixed gender were obtained from commercial vendors (e.g., BioreclamationIVT) and stored at -150° C. prior to use. 10 mM stock solutions of tested compounds were prepared in DMSO. Thawing medium and supplement incubation medium (serum-free) were placed in a 37° C. water bath for at least 15 minutes prior to use. Stock solutions were diluted to 100 µM by combining 198 µL acetonitrile and 2 µL of 10 mM stock solution.
(§5) Vials of cryopreserved hepatocytes were removed from storage, ensured that vials remain at cryogenic temperatures. The vials were thawed in a 37° C. water bath with gently shaking. Vials were kept in water bath until all ice crystals had dissolved and were no longer visible. Vials were sprayed with 70% ethanol before being transferred to a biosafety cabinet. And then the contents were poured into the 50 mL thawing medium conical tube. Vials were centrifuged at 100 g for 10 minutes at room temperature.
(§6) Cell viability and density were counted using a Trypan Blue exclusion, and then cells were diluted with serum-free incubation medium to a working cell density of 1 × 10^6 viable cells/ml. […] The inactivated hepatocytes were used to prepare negative samples, which were used to exclude the misleading factor that resulted from instability of chemical itself.
(§7) Aliquots of 247.5 µL hepatocytes were dispensed into each well of a 96-well non-coated plate. The plate was placed in the incubator on an orbital shaker for approximately 10 minutes. Aliquots of 2.5 µL of the 100 µM test compounds were added into respective wells of the non-coated 96-well plate to start the reaction. This assay was performed in duplicate. The plate was incubated in the incubator on an orbital shaker for the designed time points. […] Samples were centrifuges for 20 minutes at 4000 g and aliquots of 100 µL of the supernatants were used for LC-MS/MS analysis for measurement of test compounds
(§8) In vitro hepatocyte clearance was estimated based on determination of elimination half-life (T½) of compounds disappearance from their initial concentrations. Peak area ratios of each compound (test or control) to IS was calculated. Ln (%Control) versus Incubation Time (min) curve was plotted, and the slope of a linear fitting line was calculated.

[19] = Rat pharmacokinetic study after oral administration (SOA); format: in vivo; conditions: male Han Wistar rats; for SOA DN AUCSYS (ng·h/mL)/(mg/kg): dose-normalised systemic AUC; for Cmax: rat, plasma, nominal 10 mg/kg (actual dose in c1)
Method: For rat pharmacokinetic studies, six male Han Wistar rats were purchased from Beijing Vital River and orally dosed with the test compound at 10 mg/kg in 0.5% Tween-80 and 0.5% hydroxypropyl methylcellulose (v/w). At, 0.5, 1, 2, 4, 7 and 16 hours post-dose, blood samples (>100 µL/time point) were collected from portal vein and via cardiac puncture into separate K2EDTA […] tubes, and then immediately centrifuged at 1500 g, 5 min at 4° C. to separate plasma. The plasma samples were deproteinized with 4 fold acetonitrile (including internal standard), vortex for 10 min and centrifuges for 10 minutes at 4000 g at 4° C.. The supernatantswere submitted to LC/MS/MS (API 5500, Applied Biosystems, Foster City) analysis. Two sets of standard curves were run at the beginning and end of each batch from plasma sample analysis.
Compound absorption was measured by portal vein AUC (AUCHPV) and systemic AUC (AUCSYS) observed maximum concentration (Cmax) in rats after oral administration. Dose is the actual dose used in SOA study. Find below in Table 9 data for exemplary tested compounds.

[20] = In vitro human hepatocytes clearance assay; conditions: both, human, cryopreserved human hepatocytes (suspension), human hepatocytes Clint (µL/min/10^6cells), mixed gender human hepatocytes, incubation up to 100 min
Method: as §3, §4, §5, §6, §7, §8

| SMILES | IC50 [2] | IC50 [5] | GI50 [7] | GI50 [8] | IC50 [9] | GI50 [11] | IC50 [12] | GI50 [13] | GI50 [16] | IC50 [17] | hepatocyte CLint at 1 µM [18] | SOA DN AUCSYS (ng·h/mL)/(mg/kg) [19] | Cmax [19] | hepatocyte CLint at 1 µM [20] | GI50 [1] | GI50 [3] | GI50 [14] | GI50 [15] | further results |
| --- | --- | --- | --- | --- | --- | --- | --- | --- | --- | --- | --- | --- | --- | --- | --- | --- | --- | --- | --- |
| C=CC(=O)Nc1cc(Nc2ncnc(Nc3cc(Cl)c(F)cc3C(C)(C)O)n2)c(OC)cc1N1CC[C@@H](N(C)C)C1 [Compound 33, (R)-N-(5-(4-(5-chloro-4-fluoro-2-(2-hydroxypropan-2-yl)phenylamino)-1,3,5-triazin-2-ylamino)-2-(3-(dimethylamino)pyrrolidin-1-yl)-4-methoxyphenyl)acrylamide] | 7.8 nM | 12.2 nM | 3.1 nM | 0.97 nM | 14 nM | 22.1 nM | 6.9 nM | 29.6 nM | 12.7 nM | 0.6 nM | 6.99 µL/min/1e6 cells | 432 (ng·h/mL)/(mg/kg) | 370 ng/mL | 2.77 µL/min/1e6 cells | 2 nM | 2.5 nM | 71.1 nM | > 3000 nM | – |
| C=CC(=O)Nc1cc(Nc2nccc(Nc3cc(Cl)c(F)cc3C(C)(C)O)n2)c(OC)cc1N1C[C@@H](F)[C@@H](N(C)C)C1 [Compound 79, N-(5-(4-(5-chloro-4-fluoro-2-(2-hydroxypropan-2-yl)phenylamino)pyrimidin-2-ylamino)-2-((3 S,4R)-3-(dimethylamino)-4-fluoropyrrolidin-1-yl)-4-methoxyphenyl)acrylamide] | 18.8 nM | 356 nM | 13 nM | 8.1 nM | 29.5 nM | 176 nM | 43.2 nM | 167 nM | 124 nM | 1.3 nM | 24.1 µL/min/1e6 cells | 50.1 (ng·h/mL)/(mg/kg) | 52.5 ng/mL | 7.36 µL/min/1e6 cells | 80.9 nM | 14.4 nM | 233 nM | > 3000 nM | – |
| C=CC(=O)Nc1cc(Nc2nccc(Nc3cc(Cl)c(F)cc3C(C)(C)O)n2)c(OC)cc1N1CC[C@@H](CN(C)C)C1 [Compound 86, (S)-N-(5-(4-(5-chloro-4-fluoro-2-(2-hydroxypropan-2-yl)phenylamino)pyrimidin-2-ylamino)-2-(3-((dimethylamino)methyl)pyrrolidin-1-yl)-4-methoxyphenyl)acrylamide] | 9.3 nM | 195 nM | 29.1 nM | 7.8 nM | 21.5 nM | 90.9 nM | 17.9 nM | 59.8 nM | 45.8 nM | 0.6 nM | 16.2 µL/min/1e6 cells | 77.8 (ng·h/mL)/(mg/kg) | 76.5 ng/mL | 4.32 µL/min/1e6 cells | 18.6 nM | 11.4 nM | 249 nM | > 3000 nM | – |
| C=CC(=O)Nc1cc(Nc2ncnc(Nc3cc(Cl)c(F)cc3C(C)(C)O)n2)c(OC)cc1N1C[C@@H](F)[C@@H](N(C)C)C1 [Compound 93, N-(5-(4-(5-chloro-4-fluoro-2-(2-hydroxypropan-2-yl)phenylamino)-1,3,5-triazin-2-ylamino)-2-((3 S,4R)-3-(dimethylamino)-4-fluoropyrrolidin-1-yl)-4-methoxyphenyl) acrylamide] | 15.1 nM | 51.6 nM | 7.3 nM | 0.92 nM | 33.1 nM | 83.2 nM | 19.4 nM | 105 nM | 21.5 nM | 1.6 nM | 11.5 µL/min/1e6 cells | 249 (ng·h/mL)/(mg/kg) | 498 ng/mL | 5.01 µL/min/1e6 cells | 3.2 nM | 3.1 nM | 166 nM | > 3000 nM | – |
| C=CC(=O)Nc1cc(Nc2nccc(Nc3cc(Cl)c(F)cc3C(C)(C)O)n2)c(OC)cc1N1C[C@@H]2CN(C)C[C@@H]21 [Compound 96, N-(5-(4-(5-chloro-4-fluoro-2-(2-hydroxypropan-2-yl)phenylamino)pyrimidin-2-ylamino)-4-methoxy-2-((1S,5R)-3-methyl-3,6-diazabicyclo[3.2.0]heptan-6-yl)phenyl)acrylamide] | 2.1 nM | 50.4 nM | 0.8 nM | 7.04 nM | 13.5 nM | 55.6 nM | 7.1 nM | 50 nM | 17.8 nM | 0.4 nM | 13.2 µL/min/1e6 cells | – | – | 1.42 µL/min/1e6 cells | 25.1 nM | 2.8 nM | 50 nM | 2990 nM | – |

More lines, in order of falling IC50 [2], values ahead:

| IC50 [2] | IC50 [5] | GI50 [7] | GI50 [8] | IC50 [9] | GI50 [11] | IC50 [12] | GI50 [13] | GI50 [16] | IC50 [17] | hepatocyte CLint at 1 µM [18] | SOA DN AUCSYS (ng·h/mL)/(mg/kg) [19] | Cmax [19] | hepatocyte CLint at 1 µM [20] | SMILES | GI50 [1] | GI50 [3] | GI50 [14] | GI50 [15] | further results |
| --- | --- | --- | --- | --- | --- | --- | --- | --- | --- | --- | --- | --- | --- | --- | --- | --- | --- | --- | --- |
| 52.7 nM | 101 nM | 34.7 nM | 1.49 nM | 321 nM | 159 nM | 87.6 nM | 224 nM | 76.8 nM | 1.3 nM | – | – | – | – | C=CC(=O)Nc1cc(Nc2ncnc(Nc3cc(F)c(F)cc3C(C)(C)O)n2)c(OC)cc1N1CC(CN(C)C)C1 [Compound 23, N-(5-(4-(4,5-difluoro-2-(2-hydroxypropan-2-yl)phenylamino)-1,3,5-triazin-2-ylamino)-2-(3-((dimethylamino)methyl)azetidin-1-yl)-4-methoxyphenyl)acr ylamide] | 3.71 nM | 3.93 nM | 271 nM | > 3000 nM | IC50 [4]: 1.1 nM; IC50 [6]: 1.1 nM; IC50 [10]: 1.6 nM |
| 9.3 nM | 18.9 nM | 3.9 nM | 0.7 nM | 19.6 nM | 46.2 nM | 8 nM | 59.4 nM | 19.7 nM | 0.9 nM | – | – | – | – | C=CC(=O)Nc1cc(Nc2ncnc(Nc3cc(Cl)c(F)cc3C(C)(C)O)n2)c(OC)cc1N1CC[C@@H]1CN(C)C [Compound 38, (R)-N-(5-(4-(5-chloro-4-fluoro-2-(2-hydroxypropan-2-yl)phenylamino)-1,3,5-triazin-2-ylamino)-2-(2-((dimethylamino)methyl)azetidin-1-yl)-4-methoxyphenyl)acrylamide] | 1.49 nM | 1.62 nM | 84.8 nM | > 3000 nM | IC50 [4]: 0.8 nM; IC50 [6]: 1.7 nM; IC50 [10]: 1.3 nM |
